# Key:
# [1] = Plasma zinc concentration over time after administration of zinc samples; format: in vivo, Sprague-Dawley rat; conditions: zinc 40 mg/kg; for plasma zinc concentration over time: blood at 0.5, 1, 2, 4, 8 hours
# Method: These experimental animals were randomly assigned into a zinc sulfate-administered group, a zinc arginine-administered group and a zinc-aspartate chelate-administered group. After animals were fasted for 12 hours, each zinc sample was administered to rats, such that a zinc concentration in the sample is 40 mg/kg. After administration of the samples was complete, blood was collected at a time point of 0.5, 1, 2, 4, and 8 hours, respectively, and treated with heparin. Then, blood plasma was stored in a refrigerator and used for analysis of zinc concentrations. On the other hand, in order to examine distribution of zinc in the tissue, each zinc sample was administered to rats. After 8 hours, animals were sacrificed to remove organs. Zinc concentrations in the blood plasma and tissues were determined by fluorometry using Zinquin.
# ZnT-2 = experiment: Expression of zinc transporter protein mRNA in prostatic tissue (RT-PCR); format: in vivo; conditions: compared to before oral administration of zinc
# Method: In order to examine effects of zinc-aspartate complex on the expression of ZnT-2 and ZnT-4, known as zinc transporter proteins, experiments were carried out according to the following procedure.
# Using Trizol Reagent (Invitrogen, USA), total RNA was extracted from 0.1 g of prostatic tissue. Using M-MLV reverse transcriptase (Invitrogen, USA), cDNA was synthesized from 5 μg of the extracted total RNA. 20 pmol of a primer was added to 3 μl of cDNA to make a volume of 20 μl and PCR was carried out as follows: initial denaturation at 95° C. for 5 min, followed by 26 cycles of denaturation at 94° C. for 1 min, annealing at an annealing temperature corresponding to conditions of each primer for 1 min and extension at 72° C. for 1 min, and final extension at 72° C. for 10 min.
# PCR products were subjected to electrophoresis on 1.5% agarose gel containing EtBr, followed by confirmation of products under UV irradiation.
# Effects of the zinc-aspartate complex, zinc sulfate and zinc arginine on the expression of mRNAs for ZnT-2, ZnT-4 and G3PDH were investigated.
# [2] = tested on: patients with chronic prostatitis; experiment: Clinical trial of zinc-aspartate chelate in chronic prostatitis patients (NIH-CPSI); format: in vivo, human
# Method: 34 patients with a medical history of more than 5 years of chronic prostatitis were administered with a zinc-aspartate chelate at a dose of 50 mg/day for 8 weeks. Clinical trials were conducted at the Department of Urology, College of Medicine, Korea University (Seoul, Korea). Prostatitis classification and symptom relief were analyzed according to National Institutes of Health Chronic Prostatitis Symptom Index (NIH-CPSI, proposed by NIH in 1995). As clinical effects by a conventional therapy, the data of the clinical study of Sungkyunkwan University School of Medicine (Seoul, Korea), published in the Korean Journal of Urology (2001), were cited.
# Tables 3 and 4 below respectively show the results for chronic prostatitis patients with administration of an antibiotic and an anti-inflammatory drug as conventional therapeutic agents and with administration of the zinc-aspartate chelate, in conjunction with the results for the control group.
# [3] = Distribution of zinc in tissues (prostate, testis) after administration of zinc samples; format: in vivo, Sprague-Dawley rat
# [4] = tested on: prostatitis-induced rats (Escherichia coli ATCC 25922); experiment: White rat model of chronic bacterial prostatitis, H&E histology of prostate
# [5] = tested on: prostate cancer cell line (R3327 AT-3.1); experiment: Prostate cancer model, growth of cancer cells injected into the prostate; format: in vivo, COP rat
# Method: 10-week-old COP male rats (Japan SLC, Shizuoka, Japan) were housed and allowed to acclimate to the new environment for seven days prior to the experiment, in a breeding room maintained at a temperature of 22±2° C., humidity of 55±5%, and a 12-h light/dark (L/D) cycle (light from 8:00 a.m. to 8:00 p.m.).
# 5×10^4 cells/head of the prostate cancer cell line (R3327 AT-3.1) were injected into the prostate of animals and growth of cancer cells was measured.
# [6] = 4 and 8 hours after administration
# [7] = 8 hours after administration, zinc 40 mg/kg, p<0.001
# [8] = 15 mg/kg/day oral, 30 days, H&E stained prostate sections
molecule,measurement,setting,value
N=C(N)NCCC[C@H](N)C(=O)O.[Zn] [zinc arginine],plasma zinc concentration compared to zinc sulfate-administered group,[1],significant increase
same,plasma zinc concentration over time,[1],time-dependent increase
O=S(=O)([O-])[O-].[Zn+2] [zinc sulfate],time point of maximum blood zinc level after administration,[1],2 h
same,plasma zinc concentration over time,[1],time-dependent increase
zinc-aspartate chelate,expression level of ZnT-2 mRNA,ZnT-2,highest increase
same,side effects,"[2]; 50 mg/day for 8 weeks, 34 patients",no reports showing noticeable side effects
same,"NIH-CPSI Dysuria, after treatment","[2]; 8 weeks, oral administration, 50 mg/day, P 0.01",4.02
same,"NIH-CPSI Pain, after treatment","[2]; 8 weeks, oral administration, 50 mg/day, P 0.036",6.82
same,"NIH-CPSI Quality of life, after treatment","[2]; 8 weeks, oral administration, 50 mg/day, P 0.04",2.61
same,"NIH-CPSI Dysuria, before treatment","[2]; baseline, n = 34",5.53
same,"NIH-CPSI Pain, before treatment","[2]; baseline, n = 34",8.412
same,"NIH-CPSI Quality of life, before treatment","[2]; baseline, n = 34",3.53
same,therapeutic effects compared with conventional drug therapy and physical therapy,"[2]; chronic prostatitis patients, Tables 3 and 4",almost the similar level of therapeutic effects
same,intraprostatic zinc level compared to zinc sulfate- and zinc arginine-administered groups,[3]; [6],significantly high zinc concentration
same,intratesticular zinc level compared to zinc sulfate- and zinc arginine-administered groups,[3]; [6],significantly high zinc concentration
same,zinc concentration in testis,[3]; [7],significantly high zinc concentration
same,zinc concentration in the prostatic tissue,[3]; [7],significantly high zinc concentration
same,fibrosis in the interstitium,[4]; [8],substantially no progress of fibrosis
same,infiltration of inflammatory cells into and around glandular tissues,[4]; [8],no infiltration of inflammatory cells
same,prostate tissue morphology,"[4]; 15 mg/kg/day oral, 30 days, compared with normal group",normal tissue morphology comparable to that of the normal group
same,anti-inflammatory effects,"[4]; E. coli inoculated prostate, oral administration, stained prostate tissues",excellent anti-inflammatory effects
same,plasma zinc concentration compared to zinc sulfate-administered group,[1],significant increase
same,time point of maximum blood zinc level after administration,[1],2 h
same,plasma zinc concentration over time,[1],time-dependent increase
same,weight of tumor mass compared to the control group,[5]; 10 mg/kg oral daily,significant weight reduction of tumor mass
same,weight of tumor mass compared to the Taxel group,[5]; 10 mg/kg oral daily vs DoceTaxel 10 mg/kg once a week I.P,much lower weight of tumor mass

# From patent publication US20120277306A1, “COMPOSITION CONTAINING METAL-ACIDIC AMINO ACID CHELATE ACCELERATING ABSORPTION OF METAL” (priority 2006, published 2012)
